Experimental data from PubChem BioAssay (NCI).
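48-hour exposure; five concentrations; linearly interpolated endpoints. Abbreviation: GI50, concentration required for 50% inhibition of growth. The concentration for full growth arrest is given as TGI.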

Legend:
Assay in all cases: DTP human tumour cell line panel, 48 h
SNB-75 CNS = tested on: SNB-75 CNS
MALME-3M melanoma = tested on: MALME-3M melanoma
LOX IMVI melanoma = tested on: LOX IMVI melanoma
DU-145 prostate = tested on: DU-145 prostate
UO-31 renal = tested on: UO-31 renal
HOP-92 NSCLC = tested on: HOP-92 NSCLC
EKVX NSCLC = tested on: EKVX NSCLC
HCT-116 colon = tested on: HCT-116 colon
CAKI-1 renal = tested on: CAKI-1 renal
RPMI-8226 leukemia = tested on: RPMI-8226 leukemia
A549 NSCLC = tested on: A549 NSCLC
SK-MEL-5 melanoma = tested on: SK-MEL-5 melanoma
SK-MEL-2 melanoma = tested on: SK-MEL-2 melanoma
ACHN renal = tested on: ACHN renal
786-0 renal = tested on: 786-0 renal
IGROV1 ovarian = tested on: IGROV1 ovarian
COLO 205 colon = tested on: COLO 205 colon
HCC-2998 colon = tested on: HCC-2998 colon
A498 renal = tested on: A498 renal
SNB-19 CNS = tested on: SNB-19 CNS
NCI-H460 lung = tested on: NCI-H460 lung
T-47D breast = tested on: T-47D breast
HCT-15 colon = tested on: HCT-15 colon
OVCAR-4 ovarian = tested on: OVCAR-4 ovarian
MDA-MB-231 breast = tested on: MDA-MB-231 breast
NCI-H226 lung = tested on: NCI-H226 lung
SW-620 colon = tested on: SW-620 colon
PC-3 prostate = tested on: PC-3 prostate

O=c1c2cccc(F)c2sc2c(NCCCNCCO)nc3ccccc3c12
TGI (SNB-75 CNS): 2.99 µM | GI50 (MALME-3M melanoma): 1.61 µM | TGI (MALME-3M melanoma): 3.12 µM | GI50 (LOX IMVI melanoma): 1.13 µM | TGI (LOX IMVI melanoma): 2.38 µM | GI50 (DU-145 prostate): 1.22 µM | TGI (DU-145 prostate): 2.48 µM | GI50 (UO-31 renal): 1.1 µM | TGI (UO-31 renal): 2.35 µM | GI50 (HOP-92 NSCLC): 1.42 µM | TGI (HOP-92 NSCLC): 5.15 µM | GI50 (EKVX NSCLC): 1.29 µM | TGI (EKVX NSCLC): 2.64 µM | GI50 (HCT-116 colon): 1.39 µM | TGI (HCT-116 colon): 2.78 µM | GI50 (CAKI-1 renal): 1.42 µM | TGI (CAKI-1 renal): 2.73 µM | GI50 (RPMI-8226 leukemia): 1.76 µM | TGI (RPMI-8226 leukemia): 3.99 µM | GI50 (A549 NSCLC): 1.13 µM | TGI (A549 NSCLC): 3.08 µM | GI50 (SK-MEL-5 melanoma): 1.71 µM | TGI (SK-MEL-5 melanoma): 3.09 µM | GI50 (SK-MEL-2 melanoma): 1.97 µM | TGI (SK-MEL-2 melanoma): 3.95 µM | GI50 (ACHN renal): 1.28 µM | TGI (ACHN renal): 2.54 µM | GI50 (786-0 renal): 1.44 µM | TGI (786-0 renal): 2.84 µM | GI50 (IGROV1 ovarian): 1.23 µM | TGI (IGROV1 ovarian): 2.65 µM | GI50 (COLO 205 colon): 1.61 µM | TGI (COLO 205 colon): 3.96 µM | GI50 (HCC-2998 colon): 1.61 µM | TGI (HCC-2998 colon): 3.19 µM | GI50 (A498 renal): 1.5 µM | TGI (A498 renal): 2.88 µM | GI50 (SNB-19 CNS): 1.65 µM | TGI (SNB-19 CNS): 3.17 µM | GI50 (NCI-H460 lung): 0.653 µM | TGI (NCI-H460 lung): 1.95 µM | GI50 (T-47D breast): 1.76 µM | TGI (T-47D breast): 4.1 µM | GI50 (HCT-15 colon): 1.25 µM | TGI (HCT-15 colon): 2.65 µM | GI50 (OVCAR-4 ovarian): 1.77 µM | TGI (OVCAR-4 ovarian): 3.64 µM | GI50 (MDA-MB-231 breast): 1.26 µM | TGI (MDA-MB-231 breast): 2.65 µM | GI50 (NCI-H226 lung): 1.7 µM | TGI (NCI-H226 lung): 3.35 µM | GI50 (SW-620 colon): 1.22 µM | TGI (SW-620 colon): 2.62 µM | GI50 (PC-3 prostate): 1.66 µM | TGI (PC-3 prostate): 3.31 µM
